Laboratory results taken from PubChem BioAssay (NCI).
“And” between values parts separate entries of the source, which are not always exact repeats. Equal values may be shown once.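 Briefly, cells in 96-well plates were exposed to five compound concentrations for 48 h, and endpoints were estimated by linear interpolation. The concentration for 50% growth inhibition is given as GI50. TGI: concentration producing complete growth inhibition.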

Assays:
Assay in all cases: growth of human tumour cells (NCI), 48 h
OVCAR-3 ovarian = test system: OVCAR-3 ovarian
HCT-15 colon = test system: HCT-15 colon
OVCAR-8 ovarian = test system: OVCAR-8 ovarian
MOLT-4 leukemia = test system: MOLT-4 leukemia
RPMI-8226 leukemia = test system: RPMI-8226 leukemia
LOX IMVI melanoma = test system: LOX IMVI melanoma
SF-295 CNS = test system: SF-295 CNS
TK-10 renal = test system: TK-10 renal
HCT-116 colon = test system: HCT-116 colon
NCI-H226 lung = test system: NCI-H226 lung

CCCCCCN1C(=O)/C(=c2\sc3n(c2=O)C2C(NN=3)N(CC)C(=O)N2CC)c2ccccc21 (stereo not drawn)
GI50 (OVCAR-3 ovarian): 0.966 µM
TGI (OVCAR-3 ovarian): 2.06 µM
GI50 (HCT-15 colon): 1.62 µM
TGI (HCT-15 colon): > 50 µM
GI50 (OVCAR-8 ovarian): 1.47 µM
TGI (OVCAR-8 ovarian): > 50 µM
GI50 (MOLT-4 leukemia): 3.96 µM
TGI (MOLT-4 leukemia): > 50 µM
GI50 (RPMI-8226 leukemia): 2.57 µM
TGI (RPMI-8226 leukemia): > 50 µM
GI50 (LOX IMVI melanoma): 1.53 µM
TGI (LOX IMVI melanoma): > 50 µM
GI50 (SF-295 CNS): 1.45 µM
TGI (SF-295 CNS): > 50 µM
GI50 (TK-10 renal): 1.72 µM
TGI (TK-10 renal): > 50 µM

CC1(C)CCSC(/C=C/c2ccccc2)=N1
TGI (HCT-116 colon): 26.7 µM
TGI (OVCAR-3 ovarian): 28.5 µM
TGI (HCT-15 colon): 21.7 µM
TGI (OVCAR-8 ovarian): 29.8 µM
TGI (MOLT-4 leukemia): > 100 µM
TGI (RPMI-8226 leukemia): 62.6 µM
TGI (LOX IMVI melanoma): 27.8 µM
TGI (SF-295 CNS): 40.7 µM
TGI (TK-10 renal): 32.6 µM

C/C(=N\NC(=S)N(C)C)c1ncc[nH]1
TGI (HCT-116 colon): > 100 µM
TGI (OVCAR-3 ovarian): > 100 µM
TGI (HCT-15 colon): > 100 µM
TGI (OVCAR-8 ovarian): > 100 µM
TGI (MOLT-4 leukemia): 24 µM
TGI (RPMI-8226 leukemia): > 100 µM
TGI (LOX IMVI melanoma): > 100 µM
TGI (SF-295 CNS): > 100 µM
TGI (TK-10 renal): > 100 µM

CC(C)=CC(=O)Cc1nc2ccccc2[nH]c1=O
TGI (NCI-H226 lung): > 100 µM
TGI (HCT-116 colon): > 100 µM
TGI (OVCAR-3 ovarian): > 100 µM
TGI (HCT-15 colon): > 100 µM
TGI (MOLT-4 leukemia): > 100 µM
TGI (RPMI-8226 leukemia): > 100 µM
TGI (LOX IMVI melanoma): > 100 µM
TGI (SF-295 CNS): > 100 µM
TGI (TK-10 renal): > 100 µM

COc1ccc(Cl)cc1N1C(=O)C(Cl)=C(Nc2cccc(O)c2)C1=O
GI50 (HCT-116 colon): 11.8 µM
TGI (HCT-116 colon): 24.9 µM
GI50 (OVCAR-3 ovarian): 11.5 µM
TGI (OVCAR-3 ovarian): 36.5 µM
GI50 (HCT-15 colon): 14.4 µM
TGI (HCT-15 colon): 29.1 µM
GI50 (OVCAR-8 ovarian): 15.1 µM
TGI (OVCAR-8 ovarian): 31.2 µM
GI50 (MOLT-4 leukemia): 15.4 µM
TGI (MOLT-4 leukemia): 49.4 µM
GI50 (RPMI-8226 leukemia): 7.01 µM
TGI (RPMI-8226 leukemia): 32.3 µM
GI50 (LOX IMVI melanoma): 15.8 µM
TGI (LOX IMVI melanoma): 32.8 µM
GI50 (SF-295 CNS): 17.1 µM
TGI (SF-295 CNS): 82.9 µM
GI50 (TK-10 renal): 11.3 µM
TGI (TK-10 renal): 31.9 µM

Nc1nc(-n2cccn2)nc(-n2cccn2)c1Br
GI50 (NCI-H226 lung): > 100 µM
TGI (NCI-H226 lung): > 100 µM
GI50 (HCT-116 colon): > 100 µM
TGI (HCT-116 colon): > 100 µM
GI50 (OVCAR-3 ovarian): > 100 µM
TGI (OVCAR-3 ovarian): > 100 µM
GI50 (HCT-15 colon): > 100 µM
TGI (HCT-15 colon): > 100 µM
GI50 (OVCAR-8 ovarian): > 100 µM
TGI (OVCAR-8 ovarian): > 100 µM
GI50 (MOLT-4 leukemia): > 100 µM
TGI (MOLT-4 leukemia): > 100 µM
GI50 (RPMI-8226 leukemia): > 100 µM
TGI (RPMI-8226 leukemia): > 100 µM
GI50 (LOX IMVI melanoma): > 100 µM
TGI (LOX IMVI melanoma): > 100 µM
GI50 (SF-295 CNS): > 100 µM
TGI (SF-295 CNS): > 100 µM

CCCCCCC(C)CC(CCCCCC)NCCOC(=O)c1ccc([N+](=O)[O-])cc1 (stereo not drawn)
TGI (NCI-H226 lung): 29.4 µM and 28.6 µM
TGI (HCT-116 colon): 28.1 µM and 24.1 µM
GI50 (OVCAR-3 ovarian): 7.59 µM and 2.95 µM
TGI (OVCAR-3 ovarian): 23.6 µM and 17.5 µM
TGI (HCT-15 colon): 33.1 µM and 26.7 µM
TGI (OVCAR-8 ovarian): 22.1 µM and 19.7 µM
TGI (RPMI-8226 leukemia): 24 µM and 30.2 µM
TGI (LOX IMVI melanoma): 24.7 µM and 19.5 µM
TGI (SF-295 CNS): 25.3 µM and 31.3 µM
TGI (TK-10 renal): 24.5 µM and 23.4 µM

CCOC(=O)c1cc2c(cc1Cl)SC(N(c1ccc(F)cc1)S(=O)(=O)c1ccc(OC)cc1)=NS2(=O)=O
GI50 (NCI-H226 lung): 29.8 µM
TGI (NCI-H226 lung): > 100 µM
GI50 (HCT-116 colon): 17.1 µM
TGI (HCT-116 colon): 32 µM
GI50 (OVCAR-3 ovarian): 13.9 µM
TGI (OVCAR-3 ovarian): 28.3 µM
GI50 (HCT-15 colon): 14.8 µM
TGI (HCT-15 colon): 27.9 µM
GI50 (MOLT-4 leukemia): 15.6 µM
TGI (MOLT-4 leukemia): 37.9 µM
GI50 (RPMI-8226 leukemia): 15 µM
TGI (RPMI-8226 leukemia): 51.5 µM
GI50 (LOX IMVI melanoma): 12.9 µM
TGI (LOX IMVI melanoma): 25.6 µM
GI50 (SF-295 CNS): 25.7 µM
TGI (SF-295 CNS): 74.8 µM
GI50 (TK-10 renal): 18.8 µM
TGI (TK-10 renal): 54.5 µM

CC1CCC2(OC1)OC1CC3C4CC=C5CC(OC6OC(CO)C(OC7OC(C)C(OC8OC(C)C(O)C(O)C8O)C(O)C7O)C(O)C6OC6OC(C)C(O)C(O)C6O)CCC5(C)C4CCC3(C)C1C2C (stereo not drawn)
TGI (NCI-H226 lung): 2.86 µM
TGI (HCT-116 colon): 1.92 µM
TGI (OVCAR-3 ovarian): 3.31 µM
TGI (HCT-15 colon): 2.92 µM
TGI (OVCAR-8 ovarian): 1.59 µM
TGI (MOLT-4 leukemia): 0.958 µM
TGI (LOX IMVI melanoma): 0.733 µM
TGI (SF-295 CNS): 1.59 µM
TGI (TK-10 renal): 2.68 µM

CCN=C1NN=C(c2ccccc2)c2cc(Cl)ccc2N1
TGI (NCI-H226 lung): 43.3 µM
TGI (OVCAR-3 ovarian): 43.7 µM
TGI (HCT-15 colon): 48.6 µM
TGI (OVCAR-8 ovarian): 69.4 µM
TGI (MOLT-4 leukemia): 94.8 µM
TGI (RPMI-8226 leukemia): 87.1 µM
TGI (LOX IMVI melanoma): 36.7 µM
TGI (SF-295 CNS): 37.5 µM
TGI (TK-10 renal): 62.7 µM

Cc1cccc(C(C)O)n1 (stereo not drawn)
TGI (NCI-H226 lung): > 100 µM
TGI (HCT-116 colon): > 100 µM
TGI (OVCAR-3 ovarian): > 100 µM
TGI (HCT-15 colon): > 100 µM
TGI (OVCAR-8 ovarian): > 100 µM
TGI (MOLT-4 leukemia): > 100 µM
TGI (SF-295 CNS): > 100 µM
TGI (TK-10 renal): > 100 µM

CCOC(=O)/C(C#N)=C(O)/C(=C/c1ccccc1Cl)NC(=O)c1ccccc1
TGI (NCI-H226 lung): > 100 µM
TGI (HCT-116 colon): > 100 µM
TGI (OVCAR-3 ovarian): > 100 µM
TGI (HCT-15 colon): > 100 µM
TGI (OVCAR-8 ovarian): > 100 µM
TGI (MOLT-4 leukemia): > 100 µM
TGI (RPMI-8226 leukemia): 55.1 µM
TGI (SF-295 CNS): > 100 µM
TGI (TK-10 renal): > 100 µM

O=C1CCC(c2nc3ccccc3o2)C(=O)N1 (stereo not drawn)
TGI (NCI-H226 lung): > 100 µM
TGI (HCT-116 colon): > 100 µM
TGI (OVCAR-3 ovarian): > 100 µM
TGI (HCT-15 colon): > 100 µM
TGI (OVCAR-8 ovarian): > 100 µM
TGI (MOLT-4 leukemia): > 100 µM
TGI (LOX IMVI melanoma): > 100 µM
TGI (SF-295 CNS): > 100 µM
TGI (TK-10 renal): > 100 µM

OCCN(CO)CN(CN(CO)CCO)c1nc(N(CN(CO)CCO)CN(CO)CCO)nc(N(CN(CO)CCO)CN(CO)CCO)n1
GI50 (NCI-H226 lung): 1.25 ng/mL
TGI (NCI-H226 lung): 2.72 ng/mL
GI50 (OVCAR-8 ovarian): 1.54 ng/mL
TGI (OVCAR-8 ovarian): 5500 ng/mL
GI50 (MOLT-4 leukemia): 1.51 ng/mL
TGI (MOLT-4 leukemia): 4.49 ng/mL
GI50 (RPMI-8226 leukemia): 0.55 ng/mL
TGI (RPMI-8226 leukemia): 0.55 ng/mL
GI50 (SF-295 CNS): 1.39 ng/mL
TGI (SF-295 CNS): 3.94 ng/mL

CC1C(=O)N=C2C(=CN(Cc3ccccc3)c3ccccc32)C(=O)N1C (stereo not drawn)
TGI (NCI-H226 lung): > 100 µM
TGI (HCT-116 colon): > 100 µM
TGI (OVCAR-3 ovarian): > 100 µM
TGI (HCT-15 colon): > 100 µM
TGI (OVCAR-8 ovarian): > 100 µM
TGI (RPMI-8226 leukemia): > 100 µM
TGI (TK-10 renal): > 100 µM

O=C(CC(=O)Nc1ccc(Cl)cc1)NNCC(=O)Nc1nc(-c2ccccc2)cs1
TGI (NCI-H226 lung): > 100 µM
TGI (HCT-116 colon): > 100 µM
TGI (OVCAR-3 ovarian): > 100 µM
TGI (OVCAR-8 ovarian): > 100 µM
TGI (MOLT-4 leukemia): > 100 µM
TGI (RPMI-8226 leukemia): > 100 µM
TGI (LOX IMVI melanoma): > 100 µM
TGI (SF-295 CNS): > 100 µM
TGI (TK-10 renal): > 100 µM

O=[N+]([O-])c1ccc(Cc2nc3ccccc3s2)cc1
TGI (NCI-H226 lung): > 100 µM
TGI (HCT-116 colon): > 100 µM
TGI (OVCAR-3 ovarian): > 100 µM
TGI (HCT-15 colon): > 100 µM
TGI (OVCAR-8 ovarian): > 100 µM
TGI (MOLT-4 leukemia): > 100 µM
TGI (RPMI-8226 leukemia): > 100 µM
TGI (SF-295 CNS): > 100 µM
TGI (TK-10 renal): > 100 µM

Clc1nc(Cl)c2ncn(C/C=C\Cn3cnc4c(Cl)nc(Cl)nc43)c2n1
GI50 (NCI-H226 lung): 2.53 µM
TGI (NCI-H226 lung): 6.23 µM
GI50 (HCT-116 colon): 1.48 µM
TGI (HCT-116 colon): 3.26 µM
GI50 (OVCAR-3 ovarian): 1.37 µM
TGI (OVCAR-3 ovarian): 2.69 µM
GI50 (HCT-15 colon): 1.64 µM
TGI (HCT-15 colon): 3.36 µM
GI50 (OVCAR-8 ovarian): 2.02 µM
TGI (OVCAR-8 ovarian): 6.39 µM
GI50 (MOLT-4 leukemia): 2.05 µM
TGI (MOLT-4 leukemia): 4.11 µM
GI50 (LOX IMVI melanoma): 1.8 µM
TGI (LOX IMVI melanoma): 3.48 µM
GI50 (SF-295 CNS): 1.54 µM
TGI (SF-295 CNS): 3.06 µM
GI50 (TK-10 renal): 3.83 µM
TGI (TK-10 renal): 13.5 µM

N#CCCc1nc2ccc(Br)cc2c(=O)n1-c1ccc(O)c([N+](=O)[O-])c1
TGI (NCI-H226 lung): 43.3 µM
TGI (OVCAR-3 ovarian): 41.4 µM
TGI (HCT-15 colon): 38.3 µM
TGI (OVCAR-8 ovarian): > 100 µM
TGI (MOLT-4 leukemia): 54.3 µM
TGI (RPMI-8226 leukemia): 40 µM
TGI (LOX IMVI melanoma): 35.5 µM
TGI (SF-295 CNS): 47.8 µM
TGI (TK-10 renal): > 100 µM
